The record followed here is patent publication US11434258B2, “Compounds (immunorhelins)” (ISR IMMUNE SYSTEM REGULATION HOLDING AB (PUBL), priority 2017, dated 2022).

Non-standard residues stand in square brackets, D forms with d. Residues, ends and D or L forms follow the SMILES beside them. *: point of attachment. dHis(τ-Bn) = N[C@H](Cc1cn(Cc2ccccc2)cn1)C(=O)O; d2Nal = N[C@H](Cc1ccc2ccccc2c1)C(=O)O; pGlu = O=C1CC[C@@H](C(=O)O)N1; tBu = CC(C)(C)* A value given as a limit tells only on which side of the number the result lay.

Data set [1] is described as follows: Solubility in PBS (LC/UV AUC trend). To be noted: PBS pH 7.4, 0.2 mg/ml; rating 1 (good) to 5 (poor).
The target in data set [2] is T1, GnRHR (Homo sapiens, UniProt P30968).
T1 construct: host or cells: CHO-K1 (CHO-K1/GnRHR/Ga15)
T1 sequence (P30968 1-328): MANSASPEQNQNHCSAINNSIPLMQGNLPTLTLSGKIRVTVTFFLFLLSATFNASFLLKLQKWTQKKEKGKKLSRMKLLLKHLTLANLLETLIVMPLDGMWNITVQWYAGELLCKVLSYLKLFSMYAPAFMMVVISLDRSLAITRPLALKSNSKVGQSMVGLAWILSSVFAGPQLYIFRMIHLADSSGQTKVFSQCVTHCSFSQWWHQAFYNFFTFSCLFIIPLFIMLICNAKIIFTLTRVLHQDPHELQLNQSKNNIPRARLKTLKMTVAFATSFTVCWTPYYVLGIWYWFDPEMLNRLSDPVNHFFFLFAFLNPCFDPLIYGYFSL
Description: Calcium assay in CHO-K1 cells (Genscript), FLIPR. In kind it is cell-based. To be noted: CHO-K1/GnRHR/Ga15 cells, relative to agonist control, read-out: GNRHR Stimulation at 1 μM. The method, then: Test article sample solutions were dissolved in HBSS buffer (with 20 mM HEPES buffer, pH 7.4) to form the 5× working solution. FLIPR® Calcium 4 assay kit from Molecular devices (R8141) was used as required. In brief, CHO-K1 cells expressing GnRHR (CHO-K1/GnRHR/Ga15, Genscript accession NM_000406) were respectively cultured in the 10-cm dishes and maintained at 37° C./5% CO2. CHO-K1 cells expressing GNRHR were respectively seeded in a 384-well black-wall, clear-bottom plate at a density of 15,000 cells per well in 20 μl of growth medium about 18 hours prior to the day of experiment and maintained at 37° C./5% CO2. Then, 20 μl of dye loading solution was added into the wells and the plates were subsequently placed into a 37° C. incubator for 60 minutes, followed by a 15 minutes' incubation at room temperature. At last, 10 μl of compounds or control agonist were added into respective wells of the assay plate during reading in FLIPR. The plate containing 5× compound and control agonist solution was placed in FLIPR. Solutions were added into the cell plate automatically at the 20 seconds and the fluorescence signal was monitored for an additional 100 seconds (21 sec to 120 sec.). Data were recorded by ScreenWorks (version 3.1) as FMD files with FLIPR and stored on the GenScript computer network for off-line analysis. Data acquisition and analyses was performed using ScreenWorks (version 3.1) program and exported to Excel. The average value of the first 20 seconds' reading was calculated as the baseline and the relative fluorescent units (ΔRFU) intensity values were calculated by subtracting the average value of baseline from the maximum fluorescent units (21 s to 120 s).
The % Stimulation was calculated with the following equation: % Stimulation=(ΔRFUCompound−ΔRFUBackground)/(ΔRFUAgonist control−ΔRFUBackground)×100
Dose response curves were fitted with four-parameter-logistic-equation by the software GraphPad Prism 6.
Equation: four parameter logistic equation. Y=Bottom+(Top-Bottom)/(1+10^((Log EC50−X)×Hillslope))
X is the logarithm of concentration. Y is the response.

Data set [3] can be described thus: Stability in aqueous media (PBS pH 7.4). In kind it is physicochemical. The settings on record: phosphate buffer solution (PBS); PBS pH 7.4, 37° C., samples at T=0, 4, 24, 96 h; read-out: Stability grading (t1/2). Set-up: unit not given here. From the text: LC/MS data was collected for compound identity.

Turning to `CCNC(=O)[C@@H]1CCCN1C(=O)[C@H](CCCNC(=N)N)NC(=O)[C@H](CC(C)C)NC(=O)[C@@H](COC(C)(C)C)NC(=O)[C@H](Cc1ccc(O)cc1)NC(=O)[C@H](CO)NC(=O)[C@H](Cc1c[nH]c2ccccc12)NC(=O)[C@H](Cc1cnc[nH]1)NC(=O)[C@@H]1CCC(=O)N1` [Buserelin acetate, reference compound], the Solubility grading in data set [1] stood at 1.

In the case of `CCNC(=O)[C@@H]1CCCN1C(=O)[C@H](CCCNC(=N)N)NC(=O)[C@H](CC(C)C)NC(=O)[C@@H](COC(C)(C)C)NC(=O)[C@H](Cc1c[nH]cn1)NC(=O)[C@H](CO)NC(=O)[C@H](Cc1c[nH]c2ccccc12)NC(=O)[C@H](Cc1c[nH]cn1)NC(=O)[C@@H]1CCC(=O)N1` [Compound 6, pGlu-His-Trp-Ser-His-D-Ser(tBu)-Leu-Arg-Pro-NHEt] ([pGlu]HWSH[dS](tBu)LRP-NHEt), the Solubility grading in data set [1] was determined as 1. For the same molecule, the activation at 1 µM in data set [2] worked out at 88%. Also, in data set [3], the half-life at 0.2 mg/ml is more than 96.

`CCNC(=O)[C@@H]1CCCN1C(=O)[C@H](Cc1ccc(O)cc1)NC(=O)[C@H](CC(C)C)NC(=O)[C@@H](COC(C)(C)C)NC(=O)[C@H](Cc1ccc(O)cc1)NC(=O)[C@H](CO)NC(=O)[C@H](Cc1c[nH]c2ccccc12)NC(=O)[C@H](Cc1c[nH]cn1)NC(=O)[C@@H]1CCC(=O)N1` [Compound 9, pGlu-His-Trp-Ser-Tyr-D-Ser(tBu)-Leu-Tyr-Pro-NHEt] ([pGlu]HWSY[dS](tBu)LYP-NHEt) came in with a Solubility grading in data set [1] of 1. The activation at 1 µM in data set [2] was 78%. Moreover, in data set [3], the half-life at 0.2 mg/ml is more than 96.

With `CCNC(=O)[C@@H]1CCCN1C(=O)[C@H](CCCNC(=N)N)NC(=O)[C@H](Cc1c[nH]c2ccccc12)NC(=O)[C@@H](COC(C)(C)C)NC(=O)[C@H](Cc1c[nH]cn1)NC(=O)[C@H](CO)NC(=O)[C@H](Cc1c[nH]c2ccccc12)NC(=O)[C@H](Cc1c[nH]cn1)NC(=O)[C@@H]1CCC(=O)N1` [Compound 10, pGlu-His-Trp-Ser-His-D-Ser(tBu)-Trp-Arg-Pro-NHEt] ([pGlu]HWSH[dS](tBu)WRP-NHEt), the Solubility grading in data set [1] came out at 1. In addition, in data set [2], the activation at 1 µM was found to be 81%. The half-life at 0.2 mg/ml in data set [3] was more than 96.

`CCNC(=O)[C@@H]1CCCN1C(=O)[C@H](Cc1ccc(O)cc1)NC(=O)[C@H](CC(C)C)NC(=O)[C@@H](COC(C)(C)C)NC(=O)[C@H](Cc1c[nH]cn1)NC(=O)[C@H](CO)NC(=O)[C@H](Cc1c[nH]c2ccccc12)NC(=O)[C@H](Cc1c[nH]cn1)NC(=O)[C@@H]1CCC(=O)N1` [Compound 11, pGlu-His-Trp-Ser-His-D-Ser(tBu)-Leu-Tyr-Pro-NHEt] ([pGlu]HWSH[dS](tBu)LYP-NHEt) returned a Solubility grading in data set [1] of 1. The activation at 1 µM in data set [2] turned out to be 76%. Further, the half-life at 0.2 mg/ml in data set [3] is more than 96.

Regarding `CC(C)C[C@H](NC(=O)[C@@H](Cc1ccc2ccccc2c1)NC(=O)[C@H](Cc1c[nH]cn1)NC(=O)[C@H](CO)NC(=O)[C@H](Cc1c[nH]c2ccccc12)NC(=O)[C@H](Cc1c[nH]cn1)NC(=O)[C@@H]1CCC(=O)N1)C(=O)N[C@@H](CCCNC(=N)N)C(=O)N1CCC[C@H]1C(=O)NCC(N)=O` [Compound 23, pGlu-His-Trp-Ser-His-D-Nal-Leu-Arg-Pro-Gly-amide] ([pGlu]HWSH[d2Nal]LRPG-NH2), the Solubility grading in data set [1] came out at 1. Also, the activation at 1 µM in data set [2] is 106%. Further, in data set [3], the half-life at 0.2 mg/ml is more than 96.

In data set [1], `N=C(N)NCCC[C@H](NC(=O)[C@H](Cc1c[nH]c2ccccc12)NC(=O)[C@@H](Cc1ccc2ccccc2c1)NC(=O)[C@H](Cc1ccc(O)cc1)NC(=O)[C@H](CO)NC(=O)[C@H](Cc1c[nH]c2ccccc12)NC(=O)[C@H](Cc1c[nH]cn1)NC(=O)[C@@H]1CCC(=O)N1)C(=O)N1CCC[C@H]1C(=O)NCC(N)=O` [Compound 24, pGlu-His-Trp-Ser-Tyr-D-Nal-Trp-Arg-Pro-Gly-amide] ([pGlu]HWSY[d2Nal]WRPG-NH2) gave a Solubility grading of 5. Further, in data set [2], the activation at 1 µM worked out at 87%. In addition, the half-life at 0.2 mg/ml in data set [3] was less than 96.

In the case of `CCNC(=O)[C@@H]1CCCN1C(=O)[C@H](Cc1ccc(O)cc1)NC(=O)[C@H](CC(C)C)NC(=O)[C@@H](CC(C)C)NC(=O)[C@H](Cc1ccc(O)cc1)NC(=O)[C@H](CO)NC(=O)[C@H](Cc1c[nH]c2ccccc12)NC(=O)[C@H](Cc1c[nH]cn1)NC(=O)[C@@H]1CCC(=O)N1` [Compound 45, pGlu-His-Trp-Ser-Tyr-D-Leu-Leu-Tyr-Pro-NHEt] ([pGlu]HWSY[dL]LYP-NHEt), the activation at 1 µM in data set [2] is 105%. In addition, in data set [3], the half-life at 0.2 mg/ml was more than 96.

As to `CCNC(=O)[C@@H]1CCCN1C(=O)[C@H](Cc1ccc(O)cc1)NC(=O)[C@H](CC(C)C)NC(=O)[C@@H](CC(C)C)NC(=O)[C@H](Cc1c[nH]cn1)NC(=O)[C@H](CO)NC(=O)[C@H](Cc1c[nH]c2ccccc12)NC(=O)[C@H](Cc1c[nH]cn1)NC(=O)[C@@H]1CCC(=O)N1` [Compound 48, pGlu-His-Trp-Ser-His-D-Leu-Leu-Tyr-Pro-NHEt] ([pGlu]HWSH[dL]LYP-NHEt), the activation at 1 µM in data set [2] turned out to be 118%. For the same molecule, the half-life at 0.2 mg/ml in data set [3] was more than 96.

Turning to `CCNC(=O)[C@@H]1CCCN1C(=O)[C@H](Cc1ccc(O)cc1)NC(=O)[C@H](Cc1c[nH]c2ccccc12)NC(=O)[C@@H](CC(C)C)NC(=O)[C@H](Cc1ccc(O)cc1)NC(=O)[C@H](CO)NC(=O)[C@H](Cc1c[nH]c2ccccc12)NC(=O)[C@H](Cc1c[nH]cn1)NC(=O)[C@@H]1CCC(=O)N1` [Compound 49, pGlu-His-Trp-Ser-Tyr-D-Leu-Trp-Tyr-Pro-NHEt] ([pGlu]HWSY[dL]WYP-NHEt), in data set [2], the activation at 1 µM turned out to be 77%. In data set [3], the half-life at 0.2 mg/ml is more than 96.

Regarding `CCNC(=O)[C@@H]1CCCN1C(=O)[C@H](Cc1ccc(O)cc1)NC(=O)[C@H](CC(C)C)NC(=O)[C@@H](Cc1cn(Cc2ccccc2)cn1)NC(=O)[C@H](Cc1ccc(O)cc1)NC(=O)[C@H](CO)NC(=O)[C@H](Cc1c[nH]c2ccccc12)NC(=O)[C@H](Cc1c[nH]cn1)NC(=O)[C@@H]1CCC(=O)N1` [Compound 59, pGlu-His-Trp-Ser-Tyr-D-Bhi-Leu-Tyr-Pro-NHEt] ([pGlu]HWSY[dHis(τ-Bn)]LYP-NHEt), in data set [2], the activation at 1 µM stood at 85%. The half-life at 0.2 mg/ml in data set [3] is less than 96.

For `CCNC(=O)[C@@H]1CCCN1C(=O)[C@H](CCCNC(=N)N)NC(=O)[C@H](Cc1c[nH]c2ccccc12)NC(=O)[C@@H](Cc1cn(Cc2ccccc2)cn1)NC(=O)[C@H](Cc1c[nH]cn1)NC(=O)[C@H](CO)NC(=O)[C@H](Cc1c[nH]c2ccccc12)NC(=O)[C@H](Cc1c[nH]cn1)NC(=O)[C@@H]1CCC(=O)N1` [Compound 60, pGlu-His-Trp-Ser-His-D-Bhi-Trp-Arg-Pro-NHEt] ([pGlu]HWSH[dHis(τ-Bn)]WRP-NHEt), in data set [2], the activation at 1 µM came to 102%. Besides, the half-life at 0.2 mg/ml in data set [3] is more than 96.

Consider `CCNC(=O)[C@@H]1CCCN1C(=O)[C@H](Cc1ccc(O)cc1)NC(=O)[C@H](CC(C)C)NC(=O)[C@@H](Cc1cn(Cc2ccccc2)cn1)NC(=O)[C@H](Cc1c[nH]cn1)NC(=O)[C@H](CO)NC(=O)[C@H](Cc1c[nH]c2ccccc12)NC(=O)[C@H](Cc1c[nH]cn1)NC(=O)[C@@H]1CCC(=O)N1` [Compound 61, pGlu-His-Trp-Ser-His-D-Bhi-Leu-Tyr-Pro-NHEt] ([pGlu]HWSH[dHis(τ-Bn)]LYP-NHEt), for which the activation at 1 µM in data set [2] turned out to be 112%. Moreover, the half-life at 0.2 mg/ml in data set [3] is more than 96.

Consider `NC(=O)CNC(=O)[C@@H]1CCCN1C(=O)[C@H](Cc1ccc(O)cc1)NC(=O)[C@H](Cc1c[nH]c2ccccc12)NC(=O)[C@@H](Cc1c[nH]c2ccccc12)NC(=O)[C@H](Cc1c[nH]cn1)NC(=O)[C@H](CO)NC(=O)[C@H](Cc1c[nH]c2ccccc12)NC(=O)[C@H](Cc1c[nH]cn1)NC(=O)[C@@H]1CCC(=O)N1` [Compound 65, pGlu-His-Trp-Ser-His-D-Trp-Trp-Tyr-Pro-Gly-amide] ([pGlu]HWSH[dW]WYPG-NH2), for which the activation at 1 µM in data set [2] is 72%. In data set [3], the half-life at 0.2 mg/ml is more than 96.
